Measurements taken from patent US20230248776A1, “OSTEOBLASTS DIFFERENTIATED FROM MESENCHYMAL STEM CELLS AND COMPOSITION FOR TREATING BONE DISEASE COMPRISING SAME” (CEFO Co., Ltd., priority 2020, published 2023).

Tested on: umbilical cord-derived mesenchymal stem cells
Assay: surfactant cytotoxicity and cell growth, CCK-8 in transwell
Type: cell-based
Method: The toxicity of poloxamer (poloxamer 407, p407), sodium methyl cocoyl taurate (DIAPON K-SF), polyoxyethylene sorbitan monolaurate (Tween 20) or methylprednisolone, which are known as representative biocompatible surfactants, was confirmed.
Specifically, in the upper chamber in a transwell including a three-dimensional porous membrane, the surfactant p407, DIAPON K-SF or Tween 20 was respectively treated at 0, 0.5 1, 5 or 15% (v/v) and coated for 2 hours in the same manner as in [Example 2], and then, the umbilical cord-derived mesenchymal stem cells obtained in [Example 1] were seeded at 20,000 cells/cm^2. The cell growth medium was placed in the lower chamber and cultured for 3 days. On days 1, 2 and 3, the CCK-8 (Cat. CK04, DOJINDO) solution was added, and after 3 hours of reaction in a 37° C. CO2 incubator, absorbance was measured at 450 nm to analyze cytotoxicity (FIG. 4) and the degree of cell growth (FIG. 5).
Further, in a transwell including a three-dimensional porous membrane, the surfactant p407, methylprednisolone or Tween 20 was treated at a concentration of 4 mM in the upper chamber, and after coating for 2 hours in the same manner as in [Example 2], the umbilical cord-derived mesenchymal stem cells obtained in [Example 1] were seeded at 20,000 cell/cm^2. The cell growth medium was placed in the lower chamber and cultured for 3 days. On days 1, 2 and 3, the CCK-8 solution was added, and after 3 hours of reaction in a 37° C. CO2 incubator, absorbance was measured at 450 nm to analyze cytotoxicity (FIG. 6) and the degree of cell growth (FIG. 7).

Compound | cell proliferation, CCK-8 day 1 to day 3 (surfactant 0, 0.5, 1, 5 or 15% (v/v) coating (FIG. 5)) | cytotoxicity, CCK-8 day 1 (surfactant 0, 0.5, 1, 5 or 15% (v/v) coating, day 1 (FIG. 4)) | cell proliferation, CCK-8 day 1 to day 3 (surfactant 4 mM coating (FIG. 7)) | cytotoxicity, CCK-8 day 1 (surfactant 4 mM coating, day 1 (FIG. 6))
sodium methyl cocoyl taurate [DIAPON K-SF] | cells did not proliferate | toxic to cells | – | –
C[C@H]1C[C@@H]2[C@H]([C@@H](O)C[C@@]3(C)[C@H]2CC[C@]3(O)C(=O)CO)[C@@]2(C)C=CC(=O)C=C12 [methylprednisolone] | – | – | cells did not proliferate | toxic to cells
